Measurements from patent US12441691B2 (Cytokinetics, Inc., priority 2020, dated 2025).

tested on: rabbit skeletal myofibrils (fast skeletal myofibrils); experiment: Activation of fast skeletal myofibrils (PUMA assay, AC1.4); format: biochemical; conditions: calcium at pCa25, AC1.4 = concentration at which the compound increased the enzymatic activity
Outline: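 In 12 mM PIPES pH 6.8 with 2 mM MgCl2 and 1 mM DTT, Triton-washed rabbit skeletal myofibrils were run at the pCa25 calcium level. Myosin-made ADP was recycled through a PK/LDH coupled system; NADH loss read at 340 nm.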

Row | Structure (SMILES) | AC1.4
1 | CC[C@H](C)[C@H]1C(=O)Nc2ccccc2CN1C(=O)N1CCN(S(C)(=O)=O)CC1 [Compound 246, (S)-3-((S)-sec-butyl)-4-(4-(methylsulfonyl)piperazine-1-carbonyl)-1,3,4,5-tetrahydro-2H-benzo[e][1,4]diazepin-2-one] | 1.64 µM
2 | CC[C@H](C)[C@H]1C(=O)Nc2ccccc2CN1C(=O)N1CCC[C@H](NS(C)(=O)=O)C1 [Compound 247, N-((S)-1-((S)-3-((S)-sec-butyl)-2-oxo-2,3,4,5-tetrahydro-1H-benzo[e][1,4]diazepine-4-carbonyl)piperidin-3-yl)methanesulfonamide] | 2.49 µM
3 | CC[C@H](C)[C@H]1C(=O)Nc2ccccc2CN1C(=O)N1CCC[C@@H](NS(C)(=O)=O)C1 [Compound 248, N-((R)-1-((S)-3-((S)-sec-butyl)-2-oxo-2,3,4,5-tetrahydro-1H-benzo[e][1,4]diazepine-4-carbonyl)piperidin-3-yl)methanesulfonamide] | 3.71 µM
4 | CC[C@H](C)[C@H]1C(=O)Nc2ccccc2CN1C(=O)N1CC(C(=O)O)C1 [Compound 249, 1-((S)-3-((S)-sec-butyl)-2-oxo-2,3,4,5-tetrahydro-1H-benzo[e][1,4]diazepine-4-carbonyl)azetidine-3-carboxylic acid] | 4.51 µM
5 | CC[C@H](C)[C@H]1C(=O)Nc2ccccc2CN1C(=O)N1CC(C(N)=O)C1 [Compound 250, 1-((S)-3-((S)-sec-butyl)-2-oxo-2,3,4,5-tetrahydro-1H-benzo[e][1,4]diazepine-4-carbonyl)azetidine-3-carboxamide] | 0.60 µM
6 | CC[C@H](C)[C@H]1C(=O)Nc2ccccc2CN1C(=O)Nc1nncs1 [Compound 251, (S)-3-((S)-sec-butyl)-2-oxo-N-(1,3,4-thiadiazol-2-yl)-1,2,3,5-tetrahydro-4H-benzo[e][1,4]diazepine-4-carboxamide] | 0.08 µM
7 | CC[C@H](C)[C@H]1C(=O)Nc2ccccc2CN1C(=O)N[C@@H](C(N)=O)c1ccccc1 [Compound 252, (S)-N-((R)-2-amino-2-oxo-1-phenylethyl)-3-((S)-sec-butyl)-2-oxo-1,2,3,5-tetrahydro-4H-benzo[e][1,4]diazepine-4-carboxamide] | 0.44 µM
8 | CC[C@H](C)[C@H]1C(=O)Nc2ccccc2CN1C(=O)Nc1ccc(=O)n(CC)c1 [Compound 253, (S)-3-((S)-sec-butyl)-N-(1-ethyl-6-oxo-1,6-dihydropyridin-3-yl)-2-oxo-1,2,3,5-tetrahydro-4H-benzo[e][1,4]diazepine-4-carboxamide] | 0.08 µM
9 | CC[C@H](C)[C@H]1C(=O)Nc2ccccc2CN1C(=O)Nc1ccc(=O)n(CC2CC2)c1 [Compound 254, (S)-3-((S)-sec-butyl)-N-(1-(cyclopropylmethyl)-6-oxo-1,6-dihydropyridin-3-yl)-2-oxo-1,2,3,5-tetrahydro-4H-benzo[e][1,4]diazepine-4-carboxamide] | 0.07 µM
10 | CC[C@H](C)[C@H]1C(=O)Nc2ccccc2CN1C(=O)Nc1cccn(CCOC)c1=O [Compound 255, (S)-3-((S)-sec-butyl)-N-(1-(2-methoxyethyl)-2-oxo-1,2-dihydropyridin-3-yl)-2-oxo-1,2,3,5-tetrahydro-4H-benzo[e][1,4]diazepine-4-carboxamide] | 0.13 µM
11 | CC[C@H](C)[C@H]1C(=O)Nc2ccccc2CN1C(=O)N[C@@H](C)C(N)=O [Compound 256, (S)-N-((S)-1-amino-1-oxopropan-2-yl)-3-((S)-sec-butyl)-2-oxo-1,2,3,5-tetrahydro-4H-benzo[e][1,4]diazepine-4-carboxamide] | 1.89 µM
12 | CC[C@H](C)[C@H]1C(=O)Nc2ccccc2CN1C(=O)Nc1cc(C(F)(F)F)c[nH]c1=O [Compound 257, (S)-3-((S)-sec-butyl)-2-oxo-N-(2-oxo-5-(trifluoromethyl)-1,2-dihydropyridin-3-yl)-1,2,3,5-tetrahydro-4H-benzo[e][1,4]diazepine-4-carboxamide] | 0.02 µM
13 | CC[C@H](C)[C@H]1C(=O)Nc2ccccc2CN1C(=O)Nc1cc(-c2ccncc2)c[nH]c1=O [Compound 258, (S)-3-((S)-sec-butyl)-2-oxo-N-(6-oxo-1,6-dihydro-[3,4′-bipyridin]-5-yl)-1,2,3,5-tetrahydro-4H-benzo[e][1,4]diazepine-4-carboxamide] | 0.29 µM
14 | CC[C@H](C)[C@H]1C(=O)Nc2ccccc2CN1C(=O)NCC(=O)N1CCC[C@H]1C(=O)O [Compound 259, ((S)-3-((S)-sec-butyl)-2-oxo-2,3,4,5-tetrahydro-1H-benzo[e][1,4]diazepine-4-carbonyl)glycyl-L-proline] | 2.44 µM
15 | CC[C@H](C)[C@H]1C(=O)Nc2ccccc2CN1C(=O)NCCN1CCNC1=O [Compound 260, (S)-3-((S)-sec-butyl)-2-oxo-N-(2-(2-oxoimidazolin-1-yl)ethyl)-1,2,3,5-tetrahydro-4H-benzo[e][1,4]diazepine-4-carboxamide] | 1.91 µM
16 | CC[C@H](C)[C@H]1C(=O)Nc2ccccc2CN1C(=O)NCC1(CO)COC1 [Compound 261, (S)-3-((S)-sec-butyl)-N-((3-(hydroxymethyl)oxetan-3-yl)methyl)-2-oxo-1,2,3,5-tetrahydro-4H-benzo[e][1,4]diazepine-4-carboxamide] | 3.34 µM
17 | CC[C@H](C)[C@H]1C(=O)Nc2ccccc2CN1C(=O)NCCCCN1CCC(C(N)=O)CC1 [Compound 262, (S)-3-((S)-sec-butyl)-N-(4-(4-carbamoylpiperidin-1-yl)butyl)-2-oxo-1,2,3,5-tetrahydro-4H-benzo[e][1,4]diazepine-4-carboxamide] | 0.46 µM
18 | CC[C@H](C)[C@H]1C(=O)Nc2ccccc2CN1C(=O)NCC(C)(C)C(N)=O [Compound 263, (S)-N-(3-amino-2,2-dimethyl-3-oxopropyl)-3-((S)-sec-butyl)-2-oxo-1,2,3,5-tetrahydro-4H-benzo[e][1,4]diazepine-4-carboxamide] | 2.70 µM
19 | CC[C@H](C)[C@H]1C(=O)Nc2ccccc2CN1C(=O)N1CC(N2CCCC2)C1 [Compound 264, (S)-3-((S)-sec-butyl)-4-(3-(pyrrolidin-1-yl)azetidine-1-carbonyl)-1,3,4,5-tetrahydro-2H-benzo[e][1,4]diazepin-2-one] | 0.84 µM
20 | CC[C@H](C)[C@H]1C(=O)Nc2ccccc2CN1C(=O)N1CC(N2CCN(C)CC2)C1 [Compound 265, (S)-3-((S)-sec-butyl)-4-(3-(4-methylpiperazin-1-yl)azetidine-1-carbonyl)-1,3,4,5-tetrahydro-2H-benzo[e][1,4]diazepin-2-one] | 0.70 µM
21 | CC[C@H](C)[C@H]1C(=O)Nc2ccccc2CN1C(=O)N1CC(N2CCOCC2)C1 [Compound 266, (S)-3-((S)-sec-butyl)-4-(3-morpholinoazetidine-1-carbonyl)-1,3,4,5-tetrahydro-2H-benzo[e][1,4]diazepin-2-one] | 2.47 µM
22 | CC[C@H](C)[C@H]1C(=O)Nc2ccccc2CN1C(=O)N1CC(N2CCN(CCO)CC2)C1 [Compound 267, (S)-3-((S)-sec-butyl)-4-(3-(4-(2-hydroxyethyl)piperazin-1-yl)azetidine-1-carbonyl)-1,3,4,5-tetrahydro-2H-benzo[e][1,4]diazepin-2-one] | 0.95 µM
23 | CC[C@H](C)[C@H]1C(=O)Nc2ccccc2CN1C(=O)N1CC(N2CCN(c3ccccn3)CC2)C1 [Compound 268, (S)-3-((S)-sec-butyl)-4-(3-(4-(pyridin-2-yl)piperazin-1-yl)azetidine-1-carbonyl)-1,3,4,5-tetrahydro-2H-benzo[e][1,4]diazepin-2-one] | 1.03 µM
24 | CC[C@H](C)[C@H]1C(=O)Nc2ccccc2CN1C(=O)N1CC(OCC(=O)N(C)C)C1 [Compound 269, 2-((1-((S)-3-((S)-sec-butyl)-2-oxo-2,3,4,5-tetrahydro-1H-benzo[e][1,4]diazepine-4-carbonyl)azetidin-3-yl)oxy)-N,N-dimethylacetamide] | 0.92 µM
25 | CC[C@H](C)[C@H]1C(=O)Nc2ccccc2CN1C(=O)N1CC(OCC(=O)NC)C1 [Compound 270, 2-((1-((S)-3-((S)-sec-butyl)-2-oxo-2,3,4,5-tetrahydro-1H-benzo[e][1,4]diazepine-4-carbonyl)azetidin-3-yl)oxy)-N-methylacetamide] | 0.94 µM
26 | CC[C@H](C)[C@H]1C(=O)Nc2ccccc2CN1C(=O)N1CC(C)(N)C1 [Compound 271, (S)-4-(3-amino-3-methylazetidine-1-carbonyl)-3-((S)-sec-butyl)-1,3,4,5-tetrahydro-2H-benzo[e][1,4]diazepin-2-one] | 0.95 µM
27 | CC[C@H](C)[C@H]1C(=O)Nc2ccccc2CN1C(=O)N1C2COCC1C2 [Compound 272, (3S)-4-(3-oxa-6-azabicyclo[3.1.1]heptane-6-carbonyl)-3-((S)-sec-butyl)-1,3,4,5-tetrahydro-2H-benzo[e][1,4]diazepin-2-one] | 2.62 µM
28 | CC[C@H](C)[C@H]1C(=O)Nc2ccccc2CN1C(=O)NC1(C#N)CC1 [Compound 273, (S)-3-((S)-sec-butyl)-N-(1-cyanocyclopropyl)-2-oxo-1,2,3,5-tetrahydro-4H-benzo[e][1,4]diazepine-4-carboxamide] | 3.02 µM
29 | CC[C@H](C)[C@H]1C(=O)Nc2ccccc2CN1C(=O)Nc1ccc(=O)n(CC(F)F)n1 [Compound 274, (S)-3-((S)-sec-butyl)-N-(1-(2,2-difluoroethyl)-6-oxo-1,6-dihydropyridazin-3-yl)-2-oxo-1,2,3,5-tetrahydro-4H-benzo[e][1,4]diazepine-4-carboxamide] | 0.06 µM
30 | CC[C@H](C)[C@H]1C(=O)Nc2ccccc2CN1C(=O)Nc1ccc(=O)n(CC(F)(F)F)n1 [Compound 275, (S)-3-((S)-sec-butyl)-2-oxo-N-(6-oxo-1-(2,2,2-trifluoroethyl)-1,6-dihydropyridazin-3-yl)-1,2,3,5-tetrahydro-4H-benzo[e][1,4]diazepine-4-carboxamide] | 0.06 µM
